# Laboratory results as given in patent publication US20250092065A1, “2-(INDAZOL-5-YL)-6-(PIPERIDIN-4-YL)-1,7-NAPHTHYRIDINE DERIVATIVES AND RELATED COMPOUNDS AS MODULATORS FOR SPLICING NUCLEIC ACIDS AND FOR THE TREATMENT OF PROLIFERATIVE DISEASES” (REMIX THERAPEUTICS INC., priority 2022, published 2025).
# Where two headings read alike, the source gives them in different places.
# Experiments:
# HTT mRNA = assay: RT-qPCR splicing assay, HTT mRNA canonical (CJ) and alternative (AJ) junction; assay type: cell-based, human; conditions: Homo sapiens; for AC50: HTT alternative junction mRNA, read-out: HTT AJ (increase in AJ mRNA, AC50)
# Outline: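 Canonical and alternative-exon junction isoforms were quantified by RT-qPCR in cell lysates, with ΔCt against a housekeeper (GAPDH/GUSB/PPIA), then ΔΔCt vs DMSO, converted to 2^(−ΔΔCt) and percent response. K562 or A673 cells were exposed for 24 h to 11 concentrations (3-fold, top final 10 uM).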
# MYB = assay: HiBiT protein abundance assay, MYB (K562 HiBiT knock-in); assay type: cell-based, human; conditions: HiBiT knock-in K562 cells, 24 hours, top dose 10 μM
# Outline: (§1)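 Endogenously HiBiT-tagged K562 lines were treated for 24 h at 37 °C with 10-point 3-fold dilutions (top 10 μM final, DMSO ≤0.25%). Lytic LgBiT complementation luminescence was normalized between unmodified K562 (PC) and DMSO-treated tagged cells (NC); IC50 was interpolated at 50% from a four-parameter logistic fit.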
# HTT = assay: HiBiT protein abundance assay, HTT (K562 HiBiT knock-in); assay type: cell-based, human; conditions: HiBiT knock-in K562 cells, 24 hours, top dose 10 μM
# Outline: as §1
# Target C = assay: HiBiT protein abundance assay, Target C (K562 HiBiT knock-in); assay type: cell-based, human; conditions: HiBiT knock-in K562 cells, 24 hours, top dose 10 μM
# Outline: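 K562 HiBiT knock-in cells (10000/well) were treated 24 h at 37° C with a 10-point 3-fold dilution series (top 10 μM final, ≤0.25% DMSO). HiBiT luminescence was read after lytic LgBiT detection. Percent response used unmodified K562 and DMSO-treated knock-in controls, and IC50 came from a four-parameter fit at 50% of untreated.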
# K562 cells = assay: Cell Titer Glo 2.0 cell viability (toxicity) assay, K562; conditions: 500 cells/well, 72 hours
# [1] = HTT canonical junction mRNA, RT-qPCR, read-out: HTT CJ (decrease in CJ mRNA levels, IC50)
# [2] = canonical junction qPCR panel, Table 4, read-out: HTT IC50 (decrease in CJ mRNA levels)
Compound,AC50 (HTT mRNA; RT-qPCR),IC50 (HTT mRNA; [1]),IC50 (HTT mRNA; [2]),IC50 (MYB),IC50 (HTT),IC50 (Target C),"Effect of Exemplary Compounds on Cell Viability, K562 (K562 cells)"
"Cc1c(O)c(-c2ccc3cc(N4CCNCC4)cc(F)c3n2)cc2cn(C)nc12 [Compound 515, 5-[8-fluoro-6-(piperazin-1-yl)quinolin-2-yl]-2,7-dimethylindazol-6-ol]",< 100 nM,< 100 nM,< 100 nM,< 100 nM,< 100 nM,< 100 nM,A (A represents <100 nM)
"Cn1cc2cc(-c3ccc4cc(N5CCNCC5)cc(F)c4n3)cc(F)c2n1 [Compound 516, 8-fluoro-2-(7-fluoro-2-methylindazol-5-yl)-6-(piperazin-1-yl)quinoline]",100 to 1000 nM,100 to 1000 nM,100 to 1000 nM,< 100 nM,< 100 nM,100 to 1000 nM,B (B represents 100-1000 nM)
"Cc1cn2cc(-c3ccc4cc(N5CCNCC5)cc(F)c4n3)cc(F)c2n1 [Compound 517, 8-fluoro-2-{8-fluoro-2-methylimidazo[1,2-a]pyridin-6-yl}-6-(piperazin-1-yl)quinoline]",100 to 1000 nM,100 to 1000 nM,100 to 1000 nM,< 100 nM,< 100 nM,100 to 1000 nM,A (A represents <100 nM)
"Cn1cc2cc(-c3nc(C4CC4)c4cc(N5CCNCC5)ccc4n3)c(O)c(F)c2n1 [Compound 518, 5-[4-cyclopropyl-6-(piperazin-1-yl)quinazolin-2-yl]-7-fluoro-2-methylindazol-6-ol; trifluoroacetic acid]",1000 to 10000 nM,1000 to 10000 nM,1000 to 10000 nM,< 100 nM,1000 to 10000 nM,1000 to 10000 nM,B (B represents 100-1000 nM)
"Cc1c(O)c(-c2nc(-c3cncs3)c3cc(N4CCNCC4)ccc3n2)cc2cn(C)nc12 [Compound 519, 2,7-dimethyl-5-[6-(piperazin-1-yl)-4-(1,3-thiazol-5-yl)quinazolin-2-yl]indazol-6-ol]",> 10000 nM,> 10000 nM,> 10000 nM,100 to 1000 nM,1000 to 10000 nM,1000 to 10000 nM,B (B represents 100-1000 nM)
"Cc1c(O)c(-c2ncc3cc(N4CCNCC4)ccc3n2)cc2cn(C)nc12 [Compound 520, 2,7-dimethyl-5-[6-(piperazin-1-yl)quinazolin-2-yl]indazol-6-ol]",100 to 1000 nM,100 to 1000 nM,100 to 1000 nM,< 100 nM,100 to 1000 nM,100 to 1000 nM,B (B represents 100-1000 nM)
"Cc1c(O)c(-c2nc(-c3nnc[nH]3)c3cc(N4CCNCC4)ccc3n2)cc2cn(C)nc12 [Compound 522, 2,7-dimethyl-5-[6-(piperazin-1-yl)-4-(4H-1,2,4-triazol-3-yl)quinazolin-2-yl]indazol-6-ol; bis(trifluoroacetic acid)]",> 10000 nM,1000 to 10000 nM,1000 to 10000 nM,100 to 1000 nM,1000 to 10000 nM,1000 to 10000 nM,C (C represents 1000-9999 nM)
"Cc1c(O)c(-c2nc(C(N)=O)c3cc(N4CCNCC4)ccc3n2)cc2cn(C)nc12 [Compound 523, 2-(6-hydroxy-2,7-dimethylindazol-5-yl)-6-(piperazin-1-yl) quinazoline-4-carboxamide]",100 to 1000 nM,100 to 1000 nM,100 to 1000 nM,< 100 nM,100 to 1000 nM,1000 to 10000 nM,A (A represents <100 nM)
"Cc1c(O)c(-c2nc(C(=O)O)c3cc(N4CCNCC4)ccc3n2)cc2cn(C)nc12 [Compound 524, 2-(6-hydroxy-2,7-dimethylindazol-5-yl)-6-(piperazin-1-yl) quinazoline-4-carboxylic acid]",> 10000 nM,> 10000 nM,> 10000 nM,> 10000 nM,> 10000 nM,> 10000 nM,D (D represents greater than 10 μM in K562 cells)
"Cc1c(O)c(-c2ncc3cc(N4C[C@@H](C)N[C@@H](C)C4)ccc3n2)cc2cn(C)nc12 [Compound 525, 5-{6-[(3R,5S)-3,5-dimethylpiperazin-1-yl]quinazolin-2-yl}-2,7-dimethylindazol-6-ol]",100 to 1000 nM,100 to 1000 nM,100 to 1000 nM,< 100 nM,100 to 1000 nM,100 to 1000 nM,B (B represents 100-1000 nM)
"Cc1c(O)c(-c2ncc3nc(N4C[C@@H](C)N[C@@H](C)C4)ccc3n2)cc2cn(C)nc12 [Compound 526, 5-{6-[(3R,5S)-3,5-dimethylpiperazin-1-yl]pyrido[3,2-d]pyrimidin-2-yl}-2,7-dimethylindazol-6-ol]",1000 to 10000 nM,100 to 1000 nM,100 to 1000 nM,100 to 1000 nM,100 to 1000 nM,100 to 1000 nM,B (B represents 100-1000 nM)
"CNC(=O)c1nc(-c2cc3cn(C)nc3c(F)c2O)nc2ccc(N3C[C@@H](C)N[C@@H](C)C3)cc12 [Compound 527, 6-[(3R,5S)-3,5-dimethylpiperazin-1-yl]-2-(7-fluoro-6-hydroxy-2-methylindazol-5-yl)-N-methylquinazoline-4-carboxamide]",100 to 1000 nM,< 100 nM,< 100 nM,< 100 nM,< 100 nM,100 to 1000 nM,A (A represents <100 nM)
"CNC(=O)c1nc(-c2cc3cn(C)nc3c(F)c2O)nc2ccc(N3CCC(N(C)C)CC3)cc12 [Compound 528, 6-[4-(dimethylamino)piperidin-1-yl]-2-(7-fluoro-6-hydroxy-2-methylindazol-5-yl)-N-methylquinazoline-4-carboxamide]",1000 to 10000 nM,100 to 1000 nM,100 to 1000 nM,< 100 nM,100 to 1000 nM,100 to 1000 nM,A (A represents <100 nM)
"CNC(=O)c1nc(-c2cc3cn(C)nc3c(F)c2O)nc2ccc(N3CCN[C@@H](C)C3)cc12 [Compound 529, 2-(7-fluoro-6-hydroxy-2-methylindazol-5-yl)-N-methyl-6-[(3S)-3-methylpiperazin-1-yl]quinazoline-4-carboxamide]",100 to 1000 nM,100 to 1000 nM,100 to 1000 nM,< 100 nM,< 100 nM,100 to 1000 nM,A (A represents <100 nM)
"CNC(=O)c1nc(-c2cc3cn(C)nc3cc2O)nc2ccc(N3CCN[C@@H](C)C3)cc12 [Compound 530, 2-(6-hydroxy-2-methylindazol-5-yl)-N-methyl-6-[(3S)-3-methylpiperazin-1-yl]quinazoline-4-carboxamide]",1000 to 10000 nM,1000 to 10000 nM,1000 to 10000 nM,< 100 nM,100 to 1000 nM,100 to 1000 nM,A (A represents <100 nM)
"CNC(=O)c1nc(-c2cc3cn(C)nc3cc2O)nc2ccc(N3C[C@@H](C)N[C@@H](C)C3)cc12 [Compound 531, 6-[(3R,5S)-3,5-dimethylpiperazin-1-yl]-2-(6-hydroxy-2-methylindazol-5-yl)-N-methylquinazoline-4-carboxamide]",> 10000 nM,1000 to 10000 nM,1000 to 10000 nM,< 100 nM,100 to 1000 nM,1000 to 10000 nM,A (A represents <100 nM)
"CNC(=O)c1nc(-c2cc3cn(C)nc3c(C)c2O)nc2ccc(N3CCNC4(CC4)C3)cc12 [Compound 532, 6-{4,7-diazaspiro[2.5]octan-7-yl}-2-(6-hydroxy-2,7-dimethylindazol-5-yl)-N-methylquinazoline-4-carboxamide]",100 to 1000 nM,100 to 1000 nM,100 to 1000 nM,< 100 nM,100 to 1000 nM,100 to 1000 nM,B (B represents 100-1000 nM)
"CNC(=O)c1nc(-c2cc3cn(C)nc3c(C)c2O)nc2ccc(N3CCNCC3)nc12 [Compound 533, 2-(6-hydroxy-2,7-dimethylindazol-5-yl)-N-methyl-6-(piperazin-1-yl)pyrido[3,2-d]pyrimidine-4-carboxamide]",1000 to 10000 nM,1000 to 10000 nM,1000 to 10000 nM,100 to 1000 nM,1000 to 10000 nM,1000 to 10000 nM,B (B represents 100-1000 nM)
